Measured values: PMC10135964, “One Scaffold, Two Conformations: The Ring-Flip of the Messenger InsP8 Occurs under Cytosolic Conditions” (Biomolecules, 2023)

Experiment: Van't Hoff thermodynamic analysis of InsP8 conformational equilibrium
Format: physicochemical
Settings: 10 mM NaCl; for ΔH^0 of eq. to ax. conformational transition / ΔS^0 of eq. to ax. conformational transition: 50 µM InsP8, pH* 7.5, 130 mM KCl
Procedure: BIRD-HMQC NMR spectra were recorded as described above, at 274–283 K in 1 K steps, two replicate samples per condition. Instrument temperature was calibrated against d4-methanol according to Findeisen et al..
Samples contained 50 µM InsP8, 5 mM HEPES pH* 7.5 (pH set on ice), 130 mM KCl, 10 mM NaCl, and either 100 µM or 250 µM MgCl2. Acquisition parameters were SW(^13C): 62–82 ppm, NS: 2048, TD(^13C): 16.
The best-isolated peaks (the 2-peak of ax. and 1-peak of eq. conformer) were integrated, subtracting 1PP-InsP5 impurities. The ax./eq. ratio (i.e., equilibrium constant K for the eq. to ax. transition) was plotted against 1/T, where T is temperature in Kelvin.
ΔH^0 and ΔS^0 were calculated from the regression line. Two replicates were combined for the linear regression.

O=P(O)(O)O[C@@H]1[C@@H](OP(=O)(O)O)[C@H](OP(=O)(O)OP(=O)(O)O)[C@@H](OP(=O)(O)O)[C@H](OP(=O)(O)OP(=O)(O)O)[C@@H]1OP(=O)(O)O [InsP8, 1,5(PP)2-InsP4]
ΔH^0 of eq. to ax. conformational transition (2 equiv. MgCl2, 274–283 K): -17.1 ± 2.1 kcal/mol | ΔS^0 of eq. to ax. conformational transition (2 equiv. MgCl2, 274–283 K): −0.063 ± 0.008 kcal/(mol·K) | ΔH^0 of eq. to ax. conformational transition (5 equiv. MgCl2, 274–283 K): -7.2 ± 1.9 kcal/mol | ΔS^0 of eq. to ax. conformational transition (5 equiv. MgCl2, 274–283 K): −0.025 ± 0.007 kcal/(mol·K) | axial conformer estimated at 37 °C (Gibbs-Helmholtz equation) (2 equiv. Mg2+, pH* 7.5, 130 mM KCl): about 2% | axial conformer predicted at 37 °C (310 K) (5 equiv. Mg2+, pH* 7.5, 130 mM KCl): 29%
